From ChEMBL document CHEMBL1137997, “Synthesis and activity of 1-aryl-1'-imidazolyl methyl ethers as non-thiol farnesyltransferase inhibitors” (Bioorg Med Chem Lett, 2004) come the findings set out here.

The target in assay [1] is Geranylgeranyl transferase type I (Bos taurus, UniProt P29702+Q5EAD5). The experiment in a line: Inhibition of bovine Geranylgeranyltransferase. In kind it is protein-complex assay.
Assay [2] concerns the target Protein farnesyltransferase (Bos taurus, UniProt P29702+P49355). The assay is described as follows: Inhibition of bovine farnesyltransferase. In kind it is protein-complex assay.
Assay [3] deals with T1, Protein farnesyltransferase (Mus musculus) (UniProt Q61239+Q8K2I1). The experiment in a line: Percent inhibition of H-Ras transformed NIH-3T3-cell proliferation at 100 nM. It is filed as functional, cell-based. Conditions: NIH3T3.
Assay [4] deals with Protein farnesyltransferase (Mus musculus, UniProt Q61239+Q8K2I1). The experiment in a line: (§1) Inhibition of H-Ras transformed NIH-3T3-cell proliferation. In kind it is functional, cell-based. Conditions: nih3t3.
Assay [5] deals with T1, Protein farnesyltransferase (Mus musculus). Described as §1. In kind it is functional. Conditions: concentration not given here.

Structures are written as SMILES.

The IC50 is the concentration that inhibits the measured activity by half. Lower therefore signals inhibition by little substance. What is called inhibition is the percentage by which the read-out fell short of the control. High values mean a strong effect, low ones a weak effect. Usually EC50 stands for the concentration giving half of the maximal effect. High values mean lower potency in that assay, low ones higher potency in that assay.

For the compound `N#Cc1ccc(Cn2cncc2COCc2ccc(C#N)cc2-c2ccc(C(F)(F)F)cc2)cc1`, the IC50 is 8600 nM in assay [1] and 4.3 nM in assay [2].
Turning to `N#Cc1ccc(Cn2cncc2COCc2ccc(C#N)cc2-c2ccc3ccccc3c2)cc1`, the IC50 is 3400 nM in assay [1] and 0.92 nM in assay [2]. The same compound had an inhibition in assay [3] of 53%.
The matching figures for `N#Cc1ccc(Cn2cncc2COCc2ccc(C#N)cc2-c2cccc(OC(F)(F)F)c2)cc1`: 990 nM, 0.49 nM and 54%.
Turning to `N#Cc1ccc(COCc2cncn2Cc2ccc(C#N)nc2)c(-c2ccc3c(c2)OCO3)c1`, the IC50 in assay [1] is over 10000 nM; in assay [2], 3 nM.
In the same order, the values of `N#Cc1ccc(Cn2cncc2COCc2ccc(C#N)cc2-c2ccc3c(c2)OCO3)nc1` are 5500 nM and 4.7 nM.
Turning to `N#Cc1ccc(COCc2cncn2Cc2ccc(Cl)cc2)c(-c2ccc3c(c2)OCO3)c1`, the IC50 in assay [1] is over 10000 nM; in assay [2], 8.3 nM. In addition, in assay [3], the inhibition was found to be 11%.
Regarding `N#Cc1ccc(Cn2cncc2COCc2ccc(C#N)c(-c3cccc4ccccc34)c2)cc1`, the figures for the IC50 in assay [1] and in assay [2] were 1300 nM and 4.8 nM, respectively. In assay [3], this compound yielded an inhibition of 5%.
`COc1cccc(-c2cc(C#N)ccc2COCc2cncn2Cc2ccc(Cl)cc2)c1`: the IC50 in assay [1] is over 10000 nM; in assay [2] it was 2.2 nM. Further, the inhibition in assay [3] was 0%.
Consider `CC(=O)c1ccc(-c2cc(C#N)ccc2COCc2cncn2Cc2ccc(C#N)cc2)cc1`, for which the results for the IC50 in assay [1] and in assay [2] were over 10000 nM and 1.3 nM, respectively.
For the compound `N#Cc1ccc(Cn2cncc2COCc2ccc(C#N)cc2-c2cccc(Cl)c2)cc1`, the EC50 in assay [4] stood at 7.7 nM. In addition, the IC50 was determined as 6800 nM in assay [1] and 0.37 nM in assay [2].
`Cn1cncc1[C@@](N)(c1ccc(Cl)cc1)c1ccc2c(c1)c(-c1cccc(Cl)c1)cc(=O)n2C` [TIPIFARNIB] came in with an IC50 in assay [1] of 1100 nM. This lies in the single-digit micromolar range.
As for `COc1cccc(-c2cc(C#N)ccc2COCc2cncn2Cc2ccc(C#N)nc2)c1`, the IC50 in assay [1] was over 10000 nM; in assay [2] it was 1.5 nM. The same compound registered an inhibition in assay [3] of 35%.
`CC1=C(Br)C=C(C#N)C(=O)C1Cn1cncc1COCc1ccc(C#N)cc1-c1ccc2c(c1)OCO2` (stereo unspecified) returned an IC50 in assay [2] of over 1000 nM.
As to `COc1ccc(-c2cc(C#N)ccc2COCc2cncn2Cc2ccc(C#N)cc2)cn1`, the IC50 was over 10000 nM in assay [1] and 7.6 nM in assay [2]. This compound also had an inhibition in assay [3] of 25%.
`CCOc1cccc(-c2cc(C#N)ccc2COCc2cncn2Cc2ccc(C#N)nc2)c1`: the IC50 in assay [1] was over 10000 nM; in assay [2], 0.58 nM.
With `N#Cc1ccc(Cn2cncc2COc2ccc(C#N)c(-c3cccc4ccccc34)c2)cc1`, the values for the IC50 in assay [1] and in assay [2] were 240 nM and 0.38 nM, respectively.
In the same order, the values of `N#Cc1ccc(Cn2cncc2COCc2ccc(C#N)cc2-c2cccc(Cl)c2)nc1` are 2200 nM and 1.7 nM.
With `N#Cc1ccc(Cn2cncc2COCc2ccc(C#N)cc2-c2ccc(Cl)c(Cl)c2)cc1`, the IC50 stood at 730 nM in assay [1] and 0.37 nM in assay [2]. Moreover, the inhibition in assay [3] is 10%.
In the same order, the values of `N#Cc1ccc(OCc2cncn2Cc2ccc(C#N)c(-c3cccc4ccccc34)c2)cc1` are 565 nM, 0.32 nM and 49%.
In the case of `N#Cc1ccc(OCc2cncn2Cc2ccc(C#N)c(-c3cccc4ccccc34)c2)nc1`, the IC50 came to 420 nM in assay [1] and 0.9 nM in assay [2].
In the case of `N#Cc1ccc(Cn2cncc2COCc2cnc(C#N)cc2-c2cccc(Cl)c2)cc1`, the results for the IC50 in assay [1] and in assay [2] were 810 nM and 4.3 nM, respectively. The inhibition in assay [3] worked out at 26%.
In the same order, the values of `N#Cc1ccc(Cn2cncc2COCc2ccc(C#N)cc2-c2cccc3ccccc23)cc1` are 2300 nM, 1.3 nM and 43%.
Regarding `N#Cc1ccc(Cn2cncc2COc2ccc(Cl)cc2-c2cccc(Cl)c2)cc1`, the IC50 in assay [1] amounted to 1800 nM; in assay [2] it was 4 nM. In addition, the inhibition in assay [3] was found to be 0%.
`N#Cc1ccc(Cn2cncc2COCc2ccc(C#N)cc2-c2cccc3c2OCO3)cc1` showed an IC50 in assay [2] of 0.81 nM. This compound showed an inhibition in assay [3] of 54%.
As for `N#Cc1ccc(Cn2cncc2COCc2ccc(C#N)cc2-c2ccc(OC(F)(F)F)cc2)cc1`, in assay [4], the midpoint of the response, the EC50, lay at 52 nM. Moreover, the concentration for half-maximal inhibition (IC50) was 1300 nM in assay [1] and 0.65 nM in assay [2].
As for `CCOc1cccc(-c2cc(C#N)ccc2COCc2cncn2Cc2ccc(Cl)cc2)c1`, the IC50 is over 10000 nM in assay [1] and 1.4 nM in assay [2].
As for `CCOc1ccc(-c2cc(C#N)ccc2COCc2cncn2Cc2ccc(C#N)cc2)cc1`, the IC50 is 2300 nM in assay [1] and 1.2 nM in assay [2]. In assay [3], this compound displayed an inhibition of 52%.
The matching figures for `CC(C)(C)c1ccc(-c2cc(C#N)ccc2COCc2cncn2Cc2ccc(C#N)cc2)cc1`: 870 nM, 0.44 nM and 49%.
Consider `N#Cc1ccc(COCc2cncn2Cc2ccc(C#N)cc2-c2cccc3ccccc23)c(-c2ccc3c(c2)OCO3)c1`, for which the values for the IC50 in assay [1] and in assay [2] were 1400 nM and 6.8 nM, respectively. Further, the inhibition in assay [3] worked out at 0%.
In the same order, the values of `COc1cccc(-c2cc(C#N)ccc2COCc2cncn2Cc2ccc(C#N)cn2)c1` are over 10000 nM, 4.4 nM and 49%.
In the same order, the values of `N#Cc1ccc(Cn2cncc2CNCc2ccc(C#N)c(-c3cccc4ccccc34)c2)cc1` are 220 nM, 0.65 nM and 5%.
On to `N#Cc1ccc(Cn2cncc2COCc2ccc(Cl)cc2-c2cccc(Cl)c2)cc1`, for which, in assay [5], the inhibition was found to be 30%. Also, the IC50 in assay [1] amounted to 8200 nM; in assay [2], 0.62 nM.
The compound `CS(=O)(=O)c1ccc(Cn2cncc2COCc2ccc(C#N)cc2-c2cccc(Cl)c2)cc1` displayed an IC50 in assay [2] of 96 nM.
As to `N#Cc1ccc(COCc2cncn2Cc2ccc(C#N)nc2)c(-c2cccc(Cl)c2)c1`, the values for the IC50 in assay [1] and in assay [2] were over 10000 nM and 3 nM, respectively. In addition, the inhibition in assay [3] was determined as 43%.
Take `CC(=O)Nc1cccc(-c2cc(C#N)ccc2COCc2cncn2Cc2ccc(C#N)cc2)c1`: the IC50 in assay [2] came to 13 nM. In addition, the inhibition in assay [3] came out at 92%.
With `N#Cc1ccc(COCc2cncn2Cc2ccc(C#N)cc2-c2cccc3ccccc23)cc1`, the concentration for half-maximal inhibition (IC50) in assay [1] was 2100 nM; in assay [2] it was 0.96 nM.
As for `N#Cc1ccc(COCc2cncn2Cc2ccc(C#N)cc2-c2cccc(Cl)c2)c(-c2cccc(Cl)c2)c1`, the half-inhibitory concentration (IC50) was 87 nM in assay [1] and 10 nM in assay [2]. Moreover, in assay [3], the inhibition was determined as 0%.
The matching figures for `Cc1ccc(-c2cc(C#N)ccc2COCc2cncn2Cc2ccc(C#N)cc2)cc1C`: over 10000 nM, 0.6 nM and 53%.
